21 molecules from US10604512B2, “3-(1H-indol-2-yl)-1H-indazoles and therapeutic uses thereof” (Samumed, LLC, priority 2015, dated 2020) can be followed below.

Each structure is given as a SMILES string.

Common to all, as to assay type: cell-based
Assay [1] relates to SW480 colon cancer cells. Put plainly: Cell viability assay (CellTiter-Blue) in SW480 colon cancer cells. The following applies: Homo sapiens, 96 h, four days; for inhibition at 10 µM: given where EC50 >10 μM, read-out: percent inhibition at 10 μM; for EC50: CellTiter-Blue. The method in brief: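 SW480 cells (~2×10^3 per well) were exposed to compound for four days at 37 °C/5% CO2, using 8-point 1:3 dilutions from 10 μM to 0.0045 μM in duplicate. Viability was read by resazurin reduction (CellTiter-Blue, ~3 h, Ex 560/Em 590 nm). EC50 came from non-linear regression; above 10 μM, percent inhibition at 10 μM is given.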

Assay [2] has as its system Primary human fibroblasts derived from IPF patients (LL29 cells) treated with TGF-β1. Put plainly: Inhibition of the fibrotic process: αSMA staining in TGF-β1-treated primary human fibroblasts from IPF patients (LL29 cells). The note with it: Fibroblast, 96 h; for EC50: % αSMA-positive LL29 cells, TGF-β1 20 ng/mL, 4 days; for inhibition at 10 µM: given where EC50 >10 μM, αSMA, LL29 cells, TGF-β1, 4 days, read-out: percent inhibition at 10 μM. The method in brief: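 LL29 IPF-patient fibroblasts in 1% FBS stimulated with TGF-β1 (20 ng/mL) and compound (10 μM–1.87 nM, 0.1% DMSO) for 4 days at 37 °C. SYTOX-positive cells excluded; % αSMA-positive cells imaged, normalized to TGF-β1/DMSO wells; EC50 by nonlinear regression, else % inhibition at 10 μM.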

In assay [3] the test system is IL-6. The experiment in a line: Inhibition of IL-6 in LPS-stimulated THP-1 human monocyte cells (HTRF). The note with it: for EC50: IL-6 inhibition, LPS-stimulated THP-1 cells, HTRF; for inhibition at 10 µM: THP-1, printed beside >10 μM EC50, top concentration 10 μM, meaning not given, read-out: percentage in parentheses after EC50 >10. The method in brief:
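THP-1 cells serum-reduced (1% FBS, 24 h), then 5000 cells/well preincubated 2 h with compound (10-point 1:3 series from 10 μM, 0.1% DMSO) before 500 ng/mL LPS for 22 h at 37 °C. Secreted IL-6 quantified by HTRF 665/620 ratio; DMSO-normalised duplicates fitted to four-parameter EC50; above 10 μM, % inhibition at 10 μM given.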
In general terms: TR-FRET usually uses a lanthanide donor and a delayed reading to cut background.

In the case of `O=C(Nc1cncc(-c2ccc3[nH]nc(-c4cc5c(N6CCCCC6)cccc5[nH]4)c3c2)c1)C1CC1` [Compound 188, N-(5-(3-(4-(Piperidin-1-yl)-1H-indol-2-yl)-1H-indazol-5-yl)pyridin-3-yl) cyclopropanecarboxamide], the inhibition at 10 µM in assay [1] worked out at 29.5%. Besides, the EC50 (in general, the concentration needed to bring the measured effect to its halfway point) is greater than 10 µM in assay [1], 5.79 µM in assay [2] and 5.37 µM in assay [3].

`c1ccc(-c2ccc3[nH]nc(-c4cc5c(-c6ccoc6)cccc5[nH]4)c3c2)nc1` [Compound 336, 3-(4-(Furan-3-yl)-1H-indol-2-yl)-5-(pyridin-2-yl)-1H-indazole]: the EC50 in assay [1] is 3.1 µM; in assay [2], greater than 10 µM; in assay [3] it was 0.09 µM. For the same molecule, the inhibition at 10 µM in assay [2] was found to be 0%.

Consider `c1cncc(-c2cccc3[nH]c(-c4n[nH]c5ccc(-c6cncc(CN7CCCCC7)c6)cc45)cc23)c1` [Compound 99, 5-(5-(Piperidin-1-ylmethyl)pyridin-3-yl)-3-(4-(pyridin-3-yl)-1H-indol-2-yl)-1H-indazole], for which the inhibition at 10 µM was 6.5% in assay [1] and 50.5% in assay [3]. The EC50 in assay [1], in assay [2] and in assay [3] was greater than 10 µM throughout.

`c1ccc2[nH]c(-c3n[nH]c4ccc(-c5cncc(OCCN6CCCC6)c5)cc34)cc2c1` [Compound 686, 3-(1H-Indol-2-yl)-5-(5-(2-(pyrrolidin-1-yl)ethoxy)pyridin-3-yl)-1H-indazole]: the results for the concentration for a half-maximal effect (EC50) in assay [1], in assay [2] and in assay [3] were 0.574 µM, 7.39 µM and 0.208 µM, respectively.

Regarding `CC(C)(C)CC(=O)Nc1cncc(-c2ccc3[nH]nc(-c4cc5c(-c6ccc(F)cc6)cccc5[nH]4)c3c2)c1` [Compound 44, N-(5-(3-(4-(4-Fluorophenyl)-1H-indol-2-yl)-1H-indazol-5-yl)pyridin-3-yl)-3,3-dimethylbutanamide], the inhibition at 10 µM in assay [1] was 23.1%; in assay [3], 47.9%. Moreover, the EC50 in assay [1] was greater than 10 µM; in assay [2], 4.99 µM; in assay [3], greater than 10 µM.

In the case of `CN1CCN(c2cccc3[nH]c(-c4n[nH]c5ccc(-c6cncnc6)cc45)cc23)CC1` [Compound 251, 3-(4-(4-Methylpiperazin-1-yl)-1H-indol-2-yl)-5-(pyrimidin-5-yl)-1H-indazole], the EC50 in assay [1] stood at 3.28 µM; in assay [2], 3.04 µM; in assay [3], 0.152 µM.

In the case of `CCC(=O)Nc1cncc(-c2ccc3[nH]nc(-c4cc5ccccc5[nH]4)c3c2)c1` [Compound 253, N-(5-(3-(1H-Indol-2-yl)-1H-indazol-5-yl)pyridin-3-yl)propionamide], in assay [1], the inhibition at 10 µM came to 13.6%. The EC50 in assay [1] is greater than 10 µM; in assay [2], 2.31 µM; in assay [3], 0.233 µM.

For the molecule `CCC(=O)Nc1cncc(-c2ccc3[nH]nc(-c4cc5c(N6CCCCC6)cccc5[nH]4)c3c2)c1` [Compound 169, N-(5-(3-(4-(Piperidin-1-yl)-1H-indol-2-yl)-1H-indazol-5-yl)pyridin-3-yl) propionamide], the results for the inhibition at 10 µM in assay [1] and in assay [3] were 10.4% and 41.7%, respectively. Further, the results for the concentration for a half-maximal effect (EC50) in assay [1], in assay [2] and in assay [3] were greater than 10 µM, 1.02 µM and greater than 10 µM, respectively.

Turning to `Cc1ccncc1-c1ccc2[nH]nc(-c3cc4c(-c5ccncc5)cccc4[nH]3)c2c1` [Compound 117, 5-(4-Methylpyridin-3-yl)-3-(4-(pyridin-4-yl)-1H-indol-2-yl)-1H-indazole], the inhibition at 10 µM in assay [1] was found to be 20.9%; in assay [2], 17.7%; in assay [3], 38.6%. The EC50 in assay [1], in assay [2] and in assay [3] was greater than 10 µM throughout.

Regarding `O=C(Nc1cncc(-c2ccc3[nH]nc(-c4cc5c(-c6ccc(F)cc6)cccc5[nH]4)c3c2)c1)c1ccccc1` [Compound 39, N-(5-(3-(4-(4-Fluorophenyl)-1H-indol-2-yl)-1H-indazol-5-yl)pyridin-3-yl) benzamide], the EC50 is 3.81 µM in assay [1], 1.26 µM in assay [2] and greater than 10 µM in assay [3]. Also, the inhibition at 10 µM in assay [3] amounted to 48.3%.

Regarding `CC(C)(C)C(=O)Nc1cncc(-c2ccc3[nH]nc(-c4cc5c(-c6cc(F)cc(CNS(C)(=O)=O)c6)cccc5[nH]4)c3c2)c1` [Compound 484, N-(5-(3-(4-(3-Fluoro-5-(methylsulfonamidomethyl)phenyl)-1H-indol-2-yl)-1H-indazol-5-yl)pyridin-3-yl)pivalamide], the inhibition at 10 µM in assay [1] turned out to be 37.5%; in assay [2] it was 25.5%; in assay [3] it was 24.2%. For the same molecule, the EC50 in assay [1], in assay [2] and in assay [3] was greater than 10 µM in each case.

Turning to `c1cc(-c2ccoc2)c2cc(-c3n[nH]c4ccc(-c5cncc(OC6CCNCC6)c5)cc34)[nH]c2c1` [Compound 716, 3-(4-(Furan-3-yl)-1H-indol-2-yl)-5-(5-(piperidin-4-yloxy)pyridin-3-yl)-1H-indazole], the EC50 in assay [1] was 2.18 µM; in assay [2], 9.99 µM; in assay [3] it was greater than 10 µM. Further, in assay [3], the inhibition at 10 µM was found to be 25.5%.

For the molecule `CC(C)(C)C(=O)Nc1cncc(-c2ccc3[nH]nc(-c4cc5c(-c6ccc(F)cc6)cccc5[nH]4)c3c2)c1` [Compound 36, N-(5-(3-(4-(4-Fluorophenyl)-1H-indol-2-yl)-1H-indazol-5-yl)pyridin-3-yl) pivalamide], the inhibition at 10 µM in assay [1] is 50.4%. Besides, the EC50 in assay [1] was greater than 10 µM; in assay [2] it was 3.33 µM; in assay [3], 0.277 µM.

For `CCC(=O)Nc1cncc(-c2ccc3[nH]nc(-c4cc5c(-c6cccc(F)c6)cccc5[nH]4)c3c2)c1` [Compound 1, N-(5-(3-(4-(3-Fluorophenyl)-1H-indol-2-yl)-1H-indazol-5-yl)pyridin-3-yl) propionamide], the inhibition at 10 µM in assay [1] stood at 13.3%. Further, the EC50 in assay [1] was greater than 10 µM; in assay [2], 5.19 µM; in assay [3] it was 4.57 µM.

As to `FC1(F)CCN(Cc2cncc(-c3ccc4[nH]nc(-c5cc6c(N7CCCCC7)cccc6[nH]5)c4c3)c2)C1` [Compound 194, 5-(5-((3,3-Difluoropyrrolidin-1-yl)methyl)pyridin-3-yl)-3-(4-(piperidin-1-yl)-1H-indol-2-yl)-1H-indazole], the figures for the EC50 in assay [1], in assay [2] and in assay [3] were 4.43 µM, 1.31 µM and greater than 10 µM, respectively. Further, in assay [3], the inhibition at 10 µM was determined as 29.2%.

For the molecule `FC1(F)CCN(Cc2cncc(-c3ccc4[nH]nc(-c5cc6c(-c7cccnc7)cccc6[nH]5)c4c3)c2)C1` [Compound 110, 5-(5-((3,3-Difluoropyrrolidin-1-yl)methyl)pyridin-3-yl)-3-(4-(pyridin-3-yl)-1H-indol-2-yl)-1H-indazole], the inhibition at 10 µM amounted to 20.3% in assay [1] and 32.2% in assay [3]. For the same molecule, the EC50 in assay [1] was greater than 10 µM; in assay [2] it was 9.98 µM; in assay [3], greater than 10 µM.

In the case of `Nc1cncc(-c2ccc3[nH]nc(-c4cc5c(-c6ccccn6)cccc5[nH]4)c3c2)c1` [Compound 143, 5-(3-(4-(Pyridin-2-yl)-1H-indol-2-yl)-1H-indazol-5-yl)pyridin-3-amine], the concentration for a half-maximal effect (EC50) amounted to 0.748 µM in assay [1], 0.082 µM in assay [2] and 0.29 µM in assay [3].

As to `Fc1cccc(-c2cccc3[nH]c(-c4n[nH]c5ccc(-c6cccnc6)cc45)cc23)c1` [Compound 4, 3-(4-(3-Fluorophenyl)-1H-indol-2-yl)-5-(pyridin-3-yl)-1H-indazole], the inhibition at 10 µM in assay [1] is 3.7%; in assay [2], 10.4%. The results for the EC50 in assay [1], in assay [2] and in assay [3] were greater than 10 µM, greater than 10 µM and 0.058 µM, respectively.

On to `CCNCc1cncc(-c2ccc3[nH]nc(-c4cc5c(-c6ccncc6)cccc5[nH]4)c3c2)c1` [Compound 118, N-((5-(3-(4-(Pyridin-4-yl)-1H-indol-2-yl)-1H-indazol-5-yl)pyridin-3-yl)methyl)ethanamine], for which the figures for the EC50 in assay [1], in assay [2] and in assay [3] were 0.528 µM, 0.888 µM and 0.137 µM, respectively.

Turning to `Fc1cccc(-c2cccc3[nH]c(-c4n[nH]c5ccc(C6CCNCC6)cc45)cc23)c1` [Compound 533, 3-(4-(3-Fluorophenyl)-1H-indol-2-yl)-5-(piperidin-4-yl)-1H-indazole], the EC50 was 3.84 µM in assay [1], greater than 10 µM in assay [2] and 2.8 µM in assay [3]. The inhibition at 10 µM in assay [2] stood at 0%.

With `CCNCc1cncc(-c2ccc3[nH]nc(-c4cc5c(-c6ccccc6F)cccc5[nH]4)c3c2)c1` [Compound 62, N-((5-(3-(4-(2-Fluorophenyl)-1H-indol-2-yl)-1H-indazol-5-yl)pyridin-3-yl)methyl)ethanamine], in assay [1], the inhibition at 10 µM came to 44.5%. For the same molecule, the EC50 in assay [1] was greater than 10 µM; in assay [2] it was 7.64 µM; in assay [3], 9.93 µM.
